Laboratory results reported in US4501755A, “Isoflavones useful as anti-inflammatory agents” (Pennwalt Corporation, priority 1982, dated 1985).
Where a name gives a salt, the structure may show the parent alone.

System: carrageenan-induced paw edemas of test rats
Assay: carrageenan-induced paw edema (anti-inflammatory activity)
Type: in vivo, Male, Sprague-Dawley rats
Conditions: 50 mg/kg p.o.; carrageenan injected 2 hours after dosing, paw volume measured 3 hours later; control group paw volume as 100% edema
Method: These properties were determined by carrageenan-induced paw edemas of test rats. Male, Sprague-Dawley rats (Blue Spruce Farm) were ordered at 124-140 g, housed for one week, and allowed food and water ad libitum. At the time of the experiments, only rats weighing 160-200 g were used.
All compounds were dissolved or suspended in a 0.5% water solution of Methocel and orally administered to groups of six rats each. Control rats received Methocel only. Two hours later, paw edema was induced by subcutaneous injection into the plantar surface of the right hind paw of 0.1 ml of a 1.0% homogenized suspension of carrageenan.
Immediately, the volume of the paw was measured by immersing it in mercury to above the lateral mateolus. The mercury in a glass cylinder 22 mm in diameter and 60 mm deep was connected at the bottom of the cylinder by a column of water to a Statham transducer (model P23BB), range 0-5 cm of mercury pressure. The volume was recorded electronically on a Beckman recorder, R511. Three hours later, the inflamed paw volume was measured again, and the change in volume was recorded for each group. The percent inhibition of edema was calculated using the control group paw volume as 100% edema, i.e.,

First: CC(C)NCC(O)COc1ccc2c(=O)c(-c3ccccc3)coc2c1 (stereo not drawn) [Example 1, 7-(2-hydroxy-3-isopropylaminopropoxy)-3-phenylchromone hydrochloride]
Second: CC(C)NCC(O)COc1ccc2c(=O)c(-c3ccccc3)c(C(C)C)oc2c1 (stereo not drawn) [Example 5, 7-(2-hydroxy-3-isopropylaminopropoxy)-2-isopropylisoflavone maleate]
The “% Inhibition of Edema” value of the first is higher: 45% for the first, 29% for the second.

In the case of `CC(C)NCC(O)COc1ccc2c(=O)c(-c3ccccc3)c(C(F)(F)F)oc2c1` (stereo not drawn) [Example 4, 7-(2-hydroxy-3-isopropylaminopropoxy)-2-trifluoromethylisoflavone hydrochloride], the “% Inhibition of Edema” value is reported as 31%.
